Data taken from patent US12440439B2, “Mesoporous sponge spicule and methods thereof” (Xiamen University, priority 2019, dated 2025).

Experiment: Transdermal penetration enhancement experiments in vitro (Franz diffusion transdermal device, tape peeling, microplate reader)
Assay type: in vitro ADME, pig
Conditions: transdermal for 16 h
Experimental: Among them, delivery system groups of the second group and the third group are saturated 30% ethanol solutions of the Coumarin 6, and delivery volumes are […].
The aforementioned layers are divided into groups, soaked in 4 mL of a mixture of the phosphate buffer solution and methanol (a volume ratio is 1:1) to respectively extract the Coumarin 6 in a 1st layer of stratum corneum (SC1), 2nd-5th layers of stratum corneum (SC2), 6th-10th layers of stratum corneum (SC3), the epidermal layer (Epi), and the dermal layer (Der) at 200 r/min (revolutions per minutes (rpm)) at room temperature (e.g., 20-30° C.).

Content of the Coumarin 6 in SC1 (1st layer of stratum corneum): 0.005 ± 0.001 μg/1.77 cm^2
Content of the Coumarin 6 in SC2 (2nd-5th layers of stratum corneum): 0.009 ± 0.002 μg/1.77 cm^2
Content of the Coumarin 6 in SC3 (6th-10th layers of stratum corneum): 0.019 ± 0.003 μg/1.77 cm^2
Content of the Coumarin 6, Total (all skin layers and receptor compartment): 0.199 ± 0.047 μg/1.77 cm^2
Content of the Coumarin 6 in Der (dermal layer): 0.015 ± 0.011 μg/1.77 cm^2
Content of the Coumarin 6 in Epi (epidermal layer): 0.021 ± 0.007 μg/1.77 cm^2
Content of the Coumarin 6 in Rec (receptor compartment): 0.130 ± 0.043 μg/1.77 cm^2
Compound: CCN(CC)c1ccc2cc(-c3nc4ccccc4s3)c(=O)oc2c1 [Control, Coumarin 6]
